Laboratory results from patent US10874670B2, “Substituted fused heteroaromatic compounds as kinase inhibitors and the use thereof” (IMPACT THERAPEUTICS, INC., priority 2017, dated 2020).
Where two headings read alike, the source gives them in different places.

Columns and labels:
[1] = tested on: human colon cancer cell SW620; assay: MTT assay, growth of SW620 cells, compounds combined with CPT-11; assay type: cell-based; conditions: for IC50: Homo sapiens, SW-620, 120 h, combined with CPT-11 (205 nM medium), 5 days, MTT
Summary of the method: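 SW620 cells in RPMI 1640/10% FBS were exposed to 8-point compound dilutions (top 10 or 1 μM, 1% DMSO final) plus CPT-11 (205 nM in added medium) for 5 days at 37 °C. Viability by MTT (0.5 mg/mL, 4 h) absorbance; IC50 from sigmoidal fit.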

[2] = tested on: human breast cancer cell MDA-MB-468; assay: MTT assay, growth of MDA-MB-468 cells; assay type: cell-based; conditions: for IC50: Homo sapiens, MDA-MB-468, 168 h, 7 days, MTT
Description: Inhibitory Effects of N,N-dimethyl-3-(4-(1-(tetrahydro-2H-pyran-4-yl)-[1,2,4]triazolo[4,3-a]quinoxalin-8-yl)phenoxy)propan-1-amine and its Analogues on the Growth of Human Breast Cancer Cell MDA-MB-468 were Determined by MTT Assay
MDA-MB-468 cells were digested by trypsinase, centrifuged at 800 rpm for 5 minutes, the supernatant was discarded, resuspended with fresh medium (RPMI 1640 medium+10% FBS) and counted. The cells were seeded into 96-well cell culture plate with appropriate cell density and incubated overnight in a 37° C. 5% CO2 incubator. The stock solutions of the tested compound and the reference compound AZD0156 were serially diluted to 8 concentrations by DMSO at the ratios of 1:3 and 1:10, respectively: the first concentration was 100 μM or 1 μM, and the last concentration was negative control of DMSO (0 μM, the final concentration of DMSO was 1%). 5 μL of each concentration was added to 120 μL of medium (25 times diluted) and mixed by shaking. The overnight cells were taken and the culture medium was removed, 195 μL of fresh medium was added to each well, and 5 μL of diluted medium containing the corresponding concentration of the tested sample was added respectively, and the culture plate was then placed in the 5% CO2 cell culture incubator at 37° C. for 7 days (On the fourth day, the medium containing drugs was removed and fresh medium containing drugs was added for continuous cultivation). After removing the original solution, 100 μL of fresh serum-free DMEM medium containing MTT (0.5 mg/mL) was added to each well, the culture was continued. After 4 hours, the original solution was removed, 100 μL of DMSO was added into each well, the 96-well plates were shaken away from light for 10 minutes and placed in a multi-function reader to read the absorbance at the wavelength of 552/630/690 nm. GraphPad Prism 6.0 was used to analyze the data. The inhibitory activity of compounds on cell proliferation was plotted based on cell viability and compound concentration. The IC50 value was fitted by a sigmoidal dose response curve equation Y=100/(1+10^(Log C−Log IC50)), where C was the concentration of compound.
Table 4 summarizes the inhibitory effects of compounds on the growth of human breast cancer cell MDA-MB-468 (IC50).

[3] = target: ATM enzyme (human) (Homo sapiens, UniProt Q13315); assay: ATM kinase assay (HTRF, GST-cMyc-p53 substrate); assay type: biochemical; conditions: for inhibition at 1 µM: C 1 μm (final concentration of compound); for inhibition at 0.01 µM: C 0.01 μm (final concentration of compound); for inhibition at 0.1 µM: C 0.1 μm (final concentration of compound)
Sequence of ATM enzyme (human) (Q13315 whole entry): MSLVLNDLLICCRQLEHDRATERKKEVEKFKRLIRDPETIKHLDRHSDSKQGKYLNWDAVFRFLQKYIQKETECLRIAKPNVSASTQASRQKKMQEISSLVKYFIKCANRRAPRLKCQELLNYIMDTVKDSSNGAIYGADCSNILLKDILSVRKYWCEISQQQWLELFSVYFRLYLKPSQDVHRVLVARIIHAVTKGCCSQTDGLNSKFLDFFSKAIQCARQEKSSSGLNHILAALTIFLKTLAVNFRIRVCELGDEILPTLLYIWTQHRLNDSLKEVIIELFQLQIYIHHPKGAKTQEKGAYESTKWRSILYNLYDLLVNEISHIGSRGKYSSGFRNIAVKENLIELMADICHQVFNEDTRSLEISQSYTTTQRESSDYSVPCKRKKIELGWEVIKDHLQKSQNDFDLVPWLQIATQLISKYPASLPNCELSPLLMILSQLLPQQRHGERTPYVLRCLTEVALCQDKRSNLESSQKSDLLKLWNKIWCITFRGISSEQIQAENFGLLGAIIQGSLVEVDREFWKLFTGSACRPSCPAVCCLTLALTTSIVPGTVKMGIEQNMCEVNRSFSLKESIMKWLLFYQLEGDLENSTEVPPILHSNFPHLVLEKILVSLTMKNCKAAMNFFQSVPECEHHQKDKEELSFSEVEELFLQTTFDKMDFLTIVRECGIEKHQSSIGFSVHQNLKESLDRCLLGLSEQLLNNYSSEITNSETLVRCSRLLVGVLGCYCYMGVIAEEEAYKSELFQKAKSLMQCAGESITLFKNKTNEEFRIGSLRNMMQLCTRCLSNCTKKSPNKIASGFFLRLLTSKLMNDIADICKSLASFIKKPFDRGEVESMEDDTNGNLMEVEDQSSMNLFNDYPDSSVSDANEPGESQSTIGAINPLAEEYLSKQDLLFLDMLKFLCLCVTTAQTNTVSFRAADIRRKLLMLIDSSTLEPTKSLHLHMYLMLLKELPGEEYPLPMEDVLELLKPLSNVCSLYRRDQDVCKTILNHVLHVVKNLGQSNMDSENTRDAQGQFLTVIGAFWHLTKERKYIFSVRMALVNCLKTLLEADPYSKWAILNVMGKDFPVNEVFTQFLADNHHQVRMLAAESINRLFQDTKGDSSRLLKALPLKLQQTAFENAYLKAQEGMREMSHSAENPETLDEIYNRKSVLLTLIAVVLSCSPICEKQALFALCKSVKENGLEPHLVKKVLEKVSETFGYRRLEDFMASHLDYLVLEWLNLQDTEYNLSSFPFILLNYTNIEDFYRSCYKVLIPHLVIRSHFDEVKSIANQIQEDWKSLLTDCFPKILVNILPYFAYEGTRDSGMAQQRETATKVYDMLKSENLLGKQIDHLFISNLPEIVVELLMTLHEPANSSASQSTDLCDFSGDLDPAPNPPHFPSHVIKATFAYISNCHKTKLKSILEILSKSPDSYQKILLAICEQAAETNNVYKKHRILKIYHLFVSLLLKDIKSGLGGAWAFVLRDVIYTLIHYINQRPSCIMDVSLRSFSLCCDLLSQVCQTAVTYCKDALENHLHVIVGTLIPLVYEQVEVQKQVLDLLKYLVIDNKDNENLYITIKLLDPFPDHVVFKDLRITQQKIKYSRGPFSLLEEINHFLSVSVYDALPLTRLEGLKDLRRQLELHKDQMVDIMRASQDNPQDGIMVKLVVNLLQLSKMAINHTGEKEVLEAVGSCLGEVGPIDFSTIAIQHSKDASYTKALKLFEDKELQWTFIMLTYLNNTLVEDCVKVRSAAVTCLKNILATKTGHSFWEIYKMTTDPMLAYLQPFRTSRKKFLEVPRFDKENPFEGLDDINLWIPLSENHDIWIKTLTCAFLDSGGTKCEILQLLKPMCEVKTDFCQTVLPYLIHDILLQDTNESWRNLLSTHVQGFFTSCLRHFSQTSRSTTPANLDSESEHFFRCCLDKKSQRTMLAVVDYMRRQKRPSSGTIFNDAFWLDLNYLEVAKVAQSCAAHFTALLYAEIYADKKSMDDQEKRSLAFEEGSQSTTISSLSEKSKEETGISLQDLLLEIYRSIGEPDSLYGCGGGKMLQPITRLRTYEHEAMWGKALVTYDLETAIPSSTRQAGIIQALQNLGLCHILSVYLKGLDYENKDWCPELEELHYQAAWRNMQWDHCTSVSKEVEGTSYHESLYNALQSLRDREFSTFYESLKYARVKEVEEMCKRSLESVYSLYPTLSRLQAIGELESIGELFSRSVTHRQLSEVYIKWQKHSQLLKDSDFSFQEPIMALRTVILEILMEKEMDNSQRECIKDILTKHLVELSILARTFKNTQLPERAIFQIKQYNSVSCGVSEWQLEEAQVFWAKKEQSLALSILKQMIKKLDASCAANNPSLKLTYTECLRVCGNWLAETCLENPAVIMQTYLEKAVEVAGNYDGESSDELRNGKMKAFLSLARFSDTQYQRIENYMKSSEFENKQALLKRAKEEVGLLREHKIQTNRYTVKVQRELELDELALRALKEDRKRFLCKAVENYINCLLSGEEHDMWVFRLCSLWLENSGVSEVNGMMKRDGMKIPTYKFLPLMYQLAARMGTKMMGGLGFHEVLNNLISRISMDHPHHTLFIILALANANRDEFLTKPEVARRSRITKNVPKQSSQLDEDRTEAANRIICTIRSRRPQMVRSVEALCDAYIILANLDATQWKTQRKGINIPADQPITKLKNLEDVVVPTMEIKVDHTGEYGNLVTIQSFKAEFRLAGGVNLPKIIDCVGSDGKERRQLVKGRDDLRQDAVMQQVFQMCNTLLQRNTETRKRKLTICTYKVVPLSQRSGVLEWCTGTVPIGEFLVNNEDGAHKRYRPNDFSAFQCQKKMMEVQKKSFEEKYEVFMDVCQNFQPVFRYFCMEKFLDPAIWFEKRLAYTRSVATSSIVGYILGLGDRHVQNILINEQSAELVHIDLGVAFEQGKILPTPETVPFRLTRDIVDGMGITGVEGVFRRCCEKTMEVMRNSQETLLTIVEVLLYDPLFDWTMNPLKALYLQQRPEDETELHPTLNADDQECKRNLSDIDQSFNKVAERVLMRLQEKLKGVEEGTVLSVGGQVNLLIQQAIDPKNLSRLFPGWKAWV
Summary of the method: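 Reaction with GST-cMyc-p53 substrate started with Mg/ATP, run 30 minutes at room temperature, then stopped with EDTA. Phospho-p53 (Ser15) detected by HTRF with Eu-labelled anti-phospho antibody and d2 anti-GST, signal as 10000×(Em665/Em620). Duplicates; IC50 from a curve fit with slope factor.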

[4] = 0.5 h, read-out: Inh (%) of ATM kinase
[5] = 0.5 h, C 0.001 μm (final concentration of compound), read-out: Inh (%) of ATM kinase

Structure (SMILES) | IC50 [1] | IC50 [2] | inhibition at 1 µM [3, 4] | inhibition at 0.01 µM [3, 4] | inhibition at 0.1 µM [3, 4] | inhibitory effect on the growth of SW620 cells (in words) ([1]; MTT assay, combined with CPT-11) | inhibitory effect on the growth of MDA-MB-468 cells (in words) ([2]; MTT assay) | inhibition at 0.001 µM [3, 5] | inhibition at 0.001 µM ([3]; at 1 nM, read-out: inhibitory effect on ATM kinase)
CN(C)CCCOc1ccc(-c2ccc3ncc4cnc(C5CCOCC5)n4c3c2)cc1 [Example 37, N,N-dimethyl-3-(4-(1-(tetrahydro-2H-pyran-4-yl)imidazo[1,5-a]quinoxalin-8-yl)phenoxy)propan-1-amine] | 4.25 µM | 4.71 µM | 18% |  |  |  |  |  | 
CN(C)C1CCN(c2ccc(-c3ccc4ncc5nnc(C6CCOCC6)n5c4c3)cc2F)CC1 [Example 44, 1-(2-fluoro-4-(1-(tetrahydro-2H-pyran-4-yl)-[1,2,4]triazolo[4,3-a]quinoxalin-8-yl)phenyl)-N,N-dimethylpiperidin-4-amine] | 0.152 µM | 0.183 µM | 100% | 67% | 94% |  |  |  | 
CN(C)C1CCN(c2ccc(-c3ccc4ncc5nnc(C6CCOCC6)n5c4c3)cc2Cl)CC1 [Example 45, 1-(2-chloro-4-(1-(tetrahydro-2H-pyran-4-yl)-[1,2,4]triazolo[4,3-a]quinoxalin-8-yl)phenyl)-N,N-dimethylpiperidin-4-amine] | 0.17 µM | 0.106 µM | 100% | 67% | 94% |  |  |  | 
Cc1cc(-c2ccc3ncc4nnc(C5CCOCC5)n4c3c2)ccc1N1CCC(N(C)C)CC1 [Example 46, N,N-dimethyl-1-(2-methyl-4-(1-(tetrahydro-2H-pyran-4-yl)-[1,2,4]triazolo[4,3-a]quinoxalin-8-yl)phenyl)piperidin-4-amine] | 0.612 µM | 0.93 µM | 100% |  |  |  |  |  | 
CN(C)C1CCN(c2ccc(-c3ccc4ncc5nnc(C6CCOCC6)n5c4c3)cc2C(F)(F)F)CC1 [Example 47, N,N-dimethyl-1-(4-(1-(tetrahydro-2H-pyran-4-yl)-[1,2,4]triazolo[4,3-a]quinoxalin-8-yl)-2-(trifluoromethyl)phenyl)piperidin-4-amine] | 0.128 µM | 0.145 µM | 100% | 72% | 96% |  |  |  | 
CN(C)C1CCN(c2ccc(-c3ccc4ncc5nnc(C6CCOCC6)n5c4c3)c(F)c2)CC1 [Example 48, 1-(3-fluoro-4-(1-(tetrahydro-2H-pyran-4-yl)-[1,2,4]triazolo[4,3-a]quinoxalin-8-yl)phenyl)-N,N-dimethylpiperidin-4-amine] | 0.184 µM | 0.161 µM | 100% | 62% | 93% |  |  |  | 
CN(C)C1CCN(c2ccc(-c3ccc4ncc5nnc(C6CCOCC6)n5c4c3)c(Cl)c2)CC1 [Example 49, 1-(3-chloro-4-(1-(tetrahydro-2H-pyran-4-yl)-[1,2,4]triazolo[4,3-a]quinoxalin-8-yl)phenyl)-N,N-dimethylpiperidin-4-amine] | 1.03 µM | 1.58 µM | 100% |  |  |  |  |  | 
Cc1cc(N2CCC(N(C)C)CC2)ccc1-c1ccc2ncc3nnc(C4CCOCC4)n3c2c1 [Example 50, N,N-dimethyl-1-(3-methyl-4-(1-(tetrahydro-2H-pyran-4-yl)-[1,2,4]triazolo[4,3-a]quinoxalin-8-yl)phenyl)piperidin-4-amine] | > 10 µM | > 100 µM | 80% |  |  |  |  |  | 
CN(C)C1CCN(c2ccc(-c3ccc4ncc5nnc(C6CCOCC6)n5c4c3)c(C(F)(F)F)c2)CC1 [Example 51, N,N-dimethyl-1-(4-(1-(tetrahydro-2H-pyran-4-yl)-[1,2,4]triazolo[4,3-a]quinoxalin-8-yl)-3-(trifluoromethyl)phenyl)piperidin-4-amine] | > 10 µM | 3.68 µM | 74% |  |  |  |  |  | 
CN(C)C1CCN(c2ccc(-c3ccc4ncc5nnc(C6CCOCC6)n5c4c3)nc2)CC1 [Example 52, N,N-dimethyl-1-(6-(1-(tetrahydro-2H-pyran-4-yl)-[1,2,4]triazolo[4,3-a]quinoxalin-8-yl)pyridin-3-yl)piperidin-4-amine] | > 10 µM | 0.523 µM | 98% |  |  |  |  |  | 
CN(C)CC1CCN(c2ccc(-c3ccc4ncc5nnc(C6CCOCC6)n5c4c3)cc2)CC1 [Example 53, N,N-dimethyl-1-(1-(4-(1-(tetrahydro-2H-pyran-4-yl)-[1,2,4]triazolo[4,3-a]quinoxalin-8-yl)phenyl)piperidin-4-yl)methanamine] | > 100 µM | > 100 µM | 77% |  |  |  |  |  | 
CN(C)CCC1CCN(c2ccc(-c3ccc4ncc5nnc(C6CCOCC6)n5c4c3)cc2)CC1 [Example 54, N,N-dimethyl-2-(1-(4-(1-(tetrahydro-2H-pyran-4-yl)-[1,2,4]triazolo[4,3-a]quinoxalin-8-yl)phenyl)piperidin-4-yl)ethan-1-amine] | > 100 µM | > 100 µM | 82% |  |  |  |  |  | 
C[C@@H]1CN(c2nnc3cnc4ccc(-c5ccc(OCCCN(C)C)c(C(F)(F)F)c5)cc4n23)C[C@H](C)N1C [Example 57, N,N-dimethyl-3-(2-(trifluoromethyl)-4-(1-((3S,5R)-3,4,5-trimethylpiperazin-1-yl)-[1,2,4]triazolo[4,3-a]quinoxalin-8-yl)phenoxy)propan-1-amine] | 0.0118 µM | 0.015 µM | 100% | 98% | 100% | comparable to AZD0156 | comparable to AZD0156 | 60% | > 50%
C[C@@H]1CN(c2nnc3cnc4ccc(-c5ccc(N6CCC(N(C)C)CC6)cc5)cc4n23)C[C@H](C)N1C [Example 58, N,N-dimethyl-1-(4-(1-((3S,5R)-3,4,5-trimethylpiperazin-1-yl)-[1,2,4]triazolo[4,3-a]quinoxalin-8-yl)phenyl)piperidin-4-amine] | 0.0475 µM | 0.0688 µM | 100% | 89% | 100% |  |  | 38% | 
CN(C)C1CCN(c2ccc(-c3ccc4ncc5nnc(N6CCC(N(C)C)CC6)n5c4c3)cc2)CC1 [Example 64, 1-(4-(1-(4-(dimethylamino)piperidin-1-yl)-[1,2,4]triazolo[4,3-a]quinoxalin-8-yl)phenyl)-N,N-dimethylpiperidin-4-amine] | > 10 µM | > 10 µM | 98% |  |  |  |  |  | 
CNC1CCN(c2ccc(-c3ccc4ncc5nnc(CN6CCOCC6)n5c4c3)cc2)CC1 [Example 66, N-methyl-1-(4-(1-(morpholinomethyl)-[1,2,4]triazolo[4,3-a]quinoxalin-8-yl)phenyl)piperidin-4-amine] | 0.589 µM | 0.43 µM | 100% |  |  |  |  |  | 
c1ccc(-c2cc3c(cn2)ncc2nnc(C4CCOCC4)n23)cc1 [Example 67, 8-phenyl-1-(tetrahydro-2H-pyran-4-yl)pyrido[3,4-e][1,2,4]triazolo[4,3-a]pyrazine] | > 100 µM | > 100 µM | 19% |  |  |  |  |  | 
CN(C)Cc1ccc(-c2cc3c(cn2)ncc2nnc(C4CCOCC4)n23)cc1 [Example 68, N,N-dimethyl-1-(4-(1-(tetrahydro-2H-pyran-4-yl)pyrido[3,4-e][1,2,4]triazolo[4,3-a]pyrazin-8-yl)phenyl)methanamine] | > 100 µM | > 100 µM | 0% |  |  |  |  |  | 
CNC1CCN(c2ccc(-c3cc4c(cn3)ncc3nnc(C5CCOCC5)n34)cc2)CC1 [Example 70, N-methyl-1-(4-(1-(tetrahydropyran-4-yl)pyrido[3,4-e][1,2,4]triazolo[4,3-a]pyrazin-8-yl)phenyl)piperidin-4-amine] | > 10 µM | > 100 µM | 4% |  |  |  |  |  | 
